Earlier results on 10 molecules are cited in patent US20150108064A1, “Production Of Channel Type Cyclodextrin Crystals” (Amphidex A/S, priority 2012, published 2015).

For data set [1] the following is noted: maximum safe concentration in the air, worker exposed daily.

For the molecule `CCO` [Ethanol], the TLV in data set [1] is listed as 1000 ppm.
Take `CCCCCCC` [Heptane]: in data set [1], the TLV is on record as 400 ppm.
Regarding `CCOC(C)=O` [Ethyl acetate], the “Solubility in H2O” value is on record as 8.700 g/100 g. Also, the TLV in data set [1] is listed as 400 ppm.
As for `CCCO` [1-propanol], in data set [1], the TLV is 200 ppm.
On to `CC(C)=O` [Acetone], for which the TLV in data set [1] is given as 500 ppm.
For the molecule `C1CCCCC1` [Cyclohexane], the “Solubility in H2O” value was 0.005 g/100 g. Further, the TLV in data set [1] is 300 ppm.
`CCCCC` [Pentane]: the “Solubility in H2O” value is 0.004 g/100 g.
With `C1CCOC1` [THF, Tetrahydrofuran], the TLV in data set [1] is 200 ppm.
`ClC(Cl)Cl` [Chloroform]: the TLV in data set [1] is 10 ppm.
With `CCCCCC` [Hexane], the “Solubility in H2O” value is reported as 0.001 g/100 g. The TLV in data set [1] was 50 ppm.
